Assays:
Type in all cases: biochemical
MAGL = target: T1, MAGL (Homo sapiens, UniProt Q99685); assay: In vitro competitive activity-based protein profiling (FP-Rh or HT-01 probe, gel-based); design: IC50 MGLL PC3 (Human, μM) / IC50 MGLL PFC (Human, μM): scale not given here; details: for % Inh MGLL PFC (Human, μM) / % Inh MGLL PC3 (Human, μM): concentration not given (μM); for IC50: read-out: IC50 MGLL PC3 (Human)
T1 construct: Proteomes (human prefrontal cortex or cell membrane fractions); from tissue
T1 sequence (Q99685 1-303): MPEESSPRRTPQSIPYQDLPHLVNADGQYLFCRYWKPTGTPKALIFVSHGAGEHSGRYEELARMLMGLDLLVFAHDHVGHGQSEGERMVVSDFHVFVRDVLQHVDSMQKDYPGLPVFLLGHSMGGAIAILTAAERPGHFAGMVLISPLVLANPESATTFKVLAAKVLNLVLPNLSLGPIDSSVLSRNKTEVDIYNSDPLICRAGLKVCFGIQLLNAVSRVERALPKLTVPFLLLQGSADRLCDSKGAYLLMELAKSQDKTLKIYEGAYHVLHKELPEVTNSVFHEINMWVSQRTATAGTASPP
In short: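 Human prefrontal cortex or cell membrane proteomes (1.0 mg/mL total protein) were preincubated with varying inhibitor concentrations for 30 min at 37° C. FP-Rh or HT-01 probe (50 μM DMSO stock) was then added for 30 min at room temperature, and samples were quenched in SDS loading buffer and resolved by SDS-PAGE.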

MGLL = target: T2, MGLL (Mus musculus, UniProt O35678); assay: In vitro competitive activity-based protein profiling, mouse brain proteome (MGLL); details: concentration not given (μM)
T2 construct: Brain; from tissue; host or cells: mouse brain proteome
T2 sequence (O35678 1-303): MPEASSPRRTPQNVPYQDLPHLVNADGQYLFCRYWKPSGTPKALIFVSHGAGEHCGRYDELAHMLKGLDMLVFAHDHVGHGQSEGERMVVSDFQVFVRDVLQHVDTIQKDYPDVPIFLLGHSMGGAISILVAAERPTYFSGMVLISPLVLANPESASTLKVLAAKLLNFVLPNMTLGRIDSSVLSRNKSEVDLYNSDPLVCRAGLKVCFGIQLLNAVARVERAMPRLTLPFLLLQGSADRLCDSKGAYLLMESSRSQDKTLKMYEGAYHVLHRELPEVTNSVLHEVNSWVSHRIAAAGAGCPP

ABHD6 = target: T3, ABHD6 (Mus musculus, UniProt Q8R2Y0); assay: In vitro competitive activity-based protein profiling, mouse brain proteome (ABHD6); details: mouse brain proteome; concentration not given (μM)
T3 construct: Brain; from tissue; host or cells: mouse brain proteome
T3 sequence (Q8R2Y0 1-336): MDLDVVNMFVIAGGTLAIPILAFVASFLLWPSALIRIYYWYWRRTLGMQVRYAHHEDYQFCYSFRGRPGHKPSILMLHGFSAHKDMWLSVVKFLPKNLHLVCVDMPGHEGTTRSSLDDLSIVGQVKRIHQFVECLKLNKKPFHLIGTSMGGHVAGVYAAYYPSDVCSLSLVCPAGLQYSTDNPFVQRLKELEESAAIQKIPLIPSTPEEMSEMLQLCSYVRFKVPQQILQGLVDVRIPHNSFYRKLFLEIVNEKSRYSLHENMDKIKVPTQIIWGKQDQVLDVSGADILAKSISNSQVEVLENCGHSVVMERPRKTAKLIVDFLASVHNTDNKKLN
Method: [The source words this procedure for another target and reports this target under the same test.] In Vitro Competitive Activity-Based Protein Profiling.
Proteomes (human prefrontal cortex or cell membrane fractions) (50 μL, 1.0 mg/mL total protein concentration) were preincubated with varying concentrations of inhibitors at 37° C. After 30 min, FP-Rh or HT-01 (1.0 μL, 50 μM in DMSO) was added and the mixture was incubated for another 30 min at room temperature. Reactions were quenched with SDS loading buffer (15 μL-4×) and run on SDS-PAGE.

[1] = prefrontal cortex (PFC) proteome

% Inh MGLL PFC (Human, μM) (MAGL; [1])	% Inh MGLL Brain (Mouse, μM) (MGLL)	% Inh ABHD6 Brain (Mouse, μM) (ABHD6)	% Inh MGLL PC3 (Human, μM) (MAGL; PC3 cell proteome)	IC50 (MAGL; PC3 cell proteome) [µM]	IC50 MGLL PC3 (Human, μM) (MAGL; PC3 cell proteome)	IC50 MGLL PFC (Human, μM) (MAGL; [1])	Structure (SMILES)
### (### is ≥75%)	### (### is ≥75%)	# (# is ≤25%)					O=C(O)CN1CCC2(CC1)CN(c1cc(C(F)(F)F)ccc1CN1CCCC13CCN(C(=O)OC(C(F)(F)F)C(F)(F)F)CC3)C2 [Example 156, 2-(2-(2-((8-(((1,1,1,3,3,3-Hexafluoropropan-2-yl)oxy)carbonyl)-1,8-diazaspiro[4.5]decan-1-yl)methyl)-5-(trifluoromethyl)phenyl)-2,7-diazaspiro[3.5]nonan-7-yl)acetic acid]
### (### is ≥75%)	### (### is ≥75%)	# (# is ≤25%)					O=C(O)CN1CCC2(CCN(c3cc(C(F)(F)F)ccc3CN3CCCC34CCN(C(=O)OC(C(F)(F)F)C(F)(F)F)CC4)CC2)C1 [Example 153, 2-(8-(2-((8-(((1,1,1,3,3,3-Hexafluoropropan-2-yl)oxy)carbonyl)-1,8-diazaspiro[4.5]decan-1-yl)methyl)-5-(trifluoromethyl)phenyl)-2,8-diazaspiro[4.5]decan-2-yl)acetic acid]
### (### is ≥75%)	### (### is ≥75%)	# (# is ≤25%)					CC1(C(=O)O)CN(c2cc(C(F)(F)F)ccc2CN2CC3(CCN(C(=O)OC(C(F)(F)F)C(F)(F)F)CC3)C2)CCO1 (centres unmarked) [Example 130, 4-(2-((7-(((1,1,1,3,3,3-Hexafluoropropan-2-yl)oxy)carbonyl)-2,7-diazaspiro[3.5]nonan-2-yl)methyl)-5-(trifluoromethyl)phenyl)-2-methylmorpholine-2-carboxylic acid]
	### (### is ≥75%)	# (# is ≤25%)	### (### is ≥75%)	< 0.1			CN(Cc1ccc(C(F)(F)F)cc1N1CCC(N2CCC[C@@H]2C(=O)O)CC1)C1(C)CCN(C(=O)OC(C(F)(F)F)C(F)(F)F)CC1 [Example 162, (1-(2-(((1-(((1,1,1,3,3,3-Hexafluoropropan-2-yl)oxy)carbonyl)-4-methylpiperidin-4-yl)(methyl)amino)methyl)-5-(trifluoromethyl)phenyl)piperidin-4-yl)-D-proline]
	### (### is ≥75%)	### (### is ≥75%)	### (### is ≥75%)		* * *	* * *	CN(Cc1ccc(C(F)(F)F)cc1N1CCN(CC(=O)O)CC1)C1(C)CCN(C(=O)OC(C(F)(F)F)C(F)(F)F)CC1 [Example 26, 2-(4-(2-(((1-(((1,1,1,3,3,3-Hexafluoropropan-2-yl)oxy)carbonyl)-4-methylpiperidin-4-yl)(methyl)amino)methyl)-5-(trifluoromethyl)phenyl)piperazin-1-yl)acetic acid]
### (### is ≥75%)	### (### is ≥75%)	# (# is ≤25%)					O=C(O)C1CCN(c2cc(Cl)ccc2CN2CC3(CCN(C(=O)OC(C(F)(F)F)C(F)(F)F)CC3)C2)CC1 [Example 122, l-(5-Chloro-2-((7-(((1,1,1,3,3,3-hexafluoropropan-2-yl)oxy)carbonyl)-2,7-diazaspiro[3.5]nonan-2-yl)methyl)phenyl)piperidine-4-carboxylic acid]
### (### is ≥75%)	### (### is ≥75%)	# (# is ≤25%)					O=C(O)C1CCN(c2cc(F)ccc2CN2CC3(CCN(C(=O)OC(C(F)(F)F)C(F)(F)F)CC3)C2)CC1 [Example 123, l-(5-Fluoro-2-((7-(((1,1,1,3,3,3-hexafluoropropan-2-yl)oxy)carbonyl)-2,7-diazaspiro[3,5]nonan-2-yl)methyl)phenyl)piperidine-4-carboxylic acid]
	### (### is ≥75%)	# (# is ≤25%)	### (### is ≥75%)				CN(Cc1ccccc1C1(C(=O)O)CCCC1)C1(C)CCN(C(=O)OC(C(F)(F)F)C(F)(F)F)CC1 [Example 141, 1-(2-{[(1-{[(1,1,1,3,3,3-Hexafluoropropan-2-yl)oxy]carbonyl}-4-methylpiperidin-4-yl)(methyl)amino]methyl}phenyl)cyclopentane-1-carboxylic acid]
### (### is ≥75%)	### (### is ≥75%)	## (## is between 25 and 75%)					O=C(OC(C(F)(F)F)C(F)(F)F)N1CCC2(CCCN2Cc2cc(C(F)(F)F)cc(C3(C(=O)O)CCCC3)c2)CC1 [Example 8, 1-(3-((8-(((1,1,1,3,3,3-Hexafluoropropan-2-yl)oxy)carbonyl)-1,8-diazaspiro[4.5]decan-1-yl)methyl)-5-(trifluoromethyl)phenyl)cyclopentane-1-carboxylic acid]
### (### is ≥75%)	### (### is ≥75%)	# (# is ≤25%)					CC1(C(=O)O)CCCN(c2cc(CN3CC4(CCN(C(=O)OC(C(F)(F)F)C(F)(F)F)CC4)C3)cc(C(F)(F)F)c2)C1 (stereo not drawn) [Example 114, l-(3-((7-(((1,1,1,3,3,3-Hexafluoropropan-2-yl)oxy)carbonyl)-2,7-diazaspiro[3,5]nonan-2-yl)methyl)-5-(trifluoromethyl)phenyl)-3-methylpiperidine-3-carboxylic acid]
### (### is ≥75%)	### (### is ≥75%)	# (# is ≤25%)					O=C(O)CN1CCC2(CC1)CCN(c1cc(C(F)(F)F)ccc1CN1CCCC13CCN(C(=O)OC(C(F)(F)F)C(F)(F)F)CC3)C2 [Example 154, 2-(2-(2-((8-(((1,1,1,3,3,3-Hexafluoropropan-2-yl)oxy)carbonyl)-1,8-diazaspiro[4.5]decan-1-yl)methyl)-5-(trifluoromethyl)phenyl)-2,1-diazaspiro[4.5]decan-8-yl)acetic acid]
	### (### is ≥75%)	# (# is ≤25%)	### (### is ≥75%)				CN(Cc1ccc(Cl)cc1C1(C(=O)O)CCCC1)C1(C)CCN(C(=O)OC(C(F)(F)F)C(F)(F)F)CC1 [Example 142, 1-(5-Chloro-2-{[(1-{[(1,1,1,3,3,3-hexafluoropropan-2-yl)oxy]carbonyl}-4-methylpiperidin-4-yl)(methyl)amino]methyl}phenyl)cyclopentane-1-carboxylic acid]
### (### is ≥75%)	### (### is ≥75%)	# (# is ≤25%)	### (### is ≥75%)	0.1 to 1			CN(Cc1ccc(C(F)(F)F)cc1N1CCC[C@H]1C(=O)O)C1(C)CCN(C(=O)OC(C(F)(F)F)C(F)(F)F)CC1 [Example 132, (2-(((1-(((1,U, 3,3,3-Hexafluoropropan-2-yl)oxy)carbonyl)-4-methylpiperidin-4-yl)(methyl)amino)methyl)-5-(trifluoromethyl)phenyl)proline]
	### (### is ≥75%)	### (### is ≥75%)	### (### is ≥75%)				CN(Cc1ccc(Cl)cc1N1CCC(C(=O)O)CC1)C1(C)CCN(C(=O)OC(C(F)(F)F)C(F)(F)F)CC1 [Example 135, l-(5-Chloro-2-(((1-(((1,1,1,3,3,3-hexafluoropropan-2-yl)oxy)carbonyl)-4-methylpiperidin-4-yl)(methyl)amino)methyl)phenyl)piperidine-4-carboxylic acid]

Reference: patent US11161856B2 (H. Lundbeck A/S, priority 2017, dated 2021)
